Assay results: US12258327B2, “5-membered heteroaryl-containing aminopyridine compounds as EGFR inhibitors” (YUHAN CORPORATION, priority 2021, dated 2025)
Where two headings read alike, the source gives them in different places.

What was measured:
EGFR del19/T790M/C797S = EGFR del19/T790M/C797S (Homo sapiens, UniProt P00533, C797S/DEL746-750/T790M); assay: Biochemical EGFR kinase assay (Lance Ultra TR-FRET), triple mutant del19/T790M/C797S
How it was run: (§1)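 Step 1: compound in kinase buffer, 0.003–10 μM. Step 2: kinase reaction 1 h at room temperature. Step 4: TR-FRET read at 615/665 nm; IC50 calculated.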

EGFR L858R/T790M/C797S = EGFR L858R/T790M/C797S (Homo sapiens, UniProt P00533, C797S/L858R/T790M); assay: Biochemical EGFR kinase assay (Lance Ultra TR-FRET), triple mutant L858R/T790M/C797S
Sequence of EGFR L858R/T790M/C797S (P00533 25-1210 T790M/C797S/L858R): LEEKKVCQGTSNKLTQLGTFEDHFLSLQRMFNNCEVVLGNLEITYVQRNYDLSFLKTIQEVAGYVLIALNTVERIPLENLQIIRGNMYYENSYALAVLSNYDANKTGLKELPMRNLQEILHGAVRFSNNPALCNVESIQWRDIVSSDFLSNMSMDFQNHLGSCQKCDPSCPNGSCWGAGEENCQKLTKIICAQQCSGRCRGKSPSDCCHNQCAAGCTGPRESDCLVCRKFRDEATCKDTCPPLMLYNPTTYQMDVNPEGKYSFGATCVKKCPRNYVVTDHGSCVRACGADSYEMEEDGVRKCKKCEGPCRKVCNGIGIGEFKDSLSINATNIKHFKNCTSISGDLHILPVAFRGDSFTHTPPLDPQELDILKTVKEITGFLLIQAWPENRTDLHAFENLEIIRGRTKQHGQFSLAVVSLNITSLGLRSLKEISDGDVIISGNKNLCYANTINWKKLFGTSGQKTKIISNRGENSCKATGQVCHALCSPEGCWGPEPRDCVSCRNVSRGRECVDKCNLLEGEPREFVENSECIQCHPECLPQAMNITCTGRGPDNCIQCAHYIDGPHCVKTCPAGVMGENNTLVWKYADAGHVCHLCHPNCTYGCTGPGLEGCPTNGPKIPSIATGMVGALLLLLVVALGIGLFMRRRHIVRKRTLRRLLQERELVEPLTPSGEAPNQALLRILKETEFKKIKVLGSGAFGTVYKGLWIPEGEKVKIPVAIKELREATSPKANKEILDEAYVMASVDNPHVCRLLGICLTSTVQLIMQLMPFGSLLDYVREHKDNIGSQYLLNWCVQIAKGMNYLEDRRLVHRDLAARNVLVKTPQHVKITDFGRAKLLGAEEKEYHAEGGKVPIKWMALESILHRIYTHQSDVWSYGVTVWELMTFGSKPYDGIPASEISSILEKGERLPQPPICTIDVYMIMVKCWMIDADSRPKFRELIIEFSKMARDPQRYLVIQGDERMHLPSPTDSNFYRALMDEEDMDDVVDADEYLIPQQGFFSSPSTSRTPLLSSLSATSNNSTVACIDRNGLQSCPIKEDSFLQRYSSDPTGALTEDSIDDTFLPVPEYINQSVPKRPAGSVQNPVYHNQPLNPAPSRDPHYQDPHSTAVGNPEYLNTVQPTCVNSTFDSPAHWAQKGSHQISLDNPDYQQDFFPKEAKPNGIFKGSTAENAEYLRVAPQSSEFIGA
How it was run: as §1

EGFR L858R/C797S = EGFR L858R/C797S (Homo sapiens, UniProt P00533, C797S/L858R); assay: Biochemical EGFR kinase assay (Lance Ultra TR-FRET), double mutant L858R/C797S
Sequence of EGFR L858R/C797S (P00533 25-1210 C797S/L858R): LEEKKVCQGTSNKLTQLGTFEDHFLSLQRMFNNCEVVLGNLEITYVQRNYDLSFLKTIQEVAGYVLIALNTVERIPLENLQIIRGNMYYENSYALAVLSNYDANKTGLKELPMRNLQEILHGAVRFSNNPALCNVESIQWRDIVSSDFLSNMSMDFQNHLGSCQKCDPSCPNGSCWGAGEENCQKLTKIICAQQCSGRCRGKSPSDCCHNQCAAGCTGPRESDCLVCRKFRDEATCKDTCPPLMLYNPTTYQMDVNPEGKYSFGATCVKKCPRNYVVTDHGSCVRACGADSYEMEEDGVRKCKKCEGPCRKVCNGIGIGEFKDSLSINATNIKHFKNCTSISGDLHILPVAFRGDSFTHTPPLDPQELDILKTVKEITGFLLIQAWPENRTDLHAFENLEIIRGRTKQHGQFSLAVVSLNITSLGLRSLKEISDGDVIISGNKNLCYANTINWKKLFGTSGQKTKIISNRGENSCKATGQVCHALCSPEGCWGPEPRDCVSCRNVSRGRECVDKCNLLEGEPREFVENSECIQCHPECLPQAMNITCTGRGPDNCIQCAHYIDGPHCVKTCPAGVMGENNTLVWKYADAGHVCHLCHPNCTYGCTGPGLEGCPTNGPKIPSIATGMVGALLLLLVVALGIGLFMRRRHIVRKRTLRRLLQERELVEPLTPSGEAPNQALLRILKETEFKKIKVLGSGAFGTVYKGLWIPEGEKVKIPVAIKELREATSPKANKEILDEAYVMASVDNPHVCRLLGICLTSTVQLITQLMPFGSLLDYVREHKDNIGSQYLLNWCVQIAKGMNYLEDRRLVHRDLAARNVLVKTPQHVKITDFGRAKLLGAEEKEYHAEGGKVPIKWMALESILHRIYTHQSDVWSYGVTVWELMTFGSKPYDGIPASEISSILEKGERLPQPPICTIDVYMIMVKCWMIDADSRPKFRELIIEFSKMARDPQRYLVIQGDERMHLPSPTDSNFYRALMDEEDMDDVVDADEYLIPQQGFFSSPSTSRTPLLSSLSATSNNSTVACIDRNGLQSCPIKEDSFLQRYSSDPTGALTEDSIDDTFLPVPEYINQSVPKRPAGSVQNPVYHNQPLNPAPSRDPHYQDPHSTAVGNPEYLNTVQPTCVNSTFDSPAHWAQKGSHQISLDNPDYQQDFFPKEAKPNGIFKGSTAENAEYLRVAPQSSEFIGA
How it was run: as §1

EGFR wildtype (WT) = EGFR wildtype (WT) (Homo sapiens, UniProt P00533); assay: Biochemical EGFR kinase assay (Lance Ultra TR-FRET), wildtype
Sequence of EGFR wildtype (WT) (P00533 25-1210): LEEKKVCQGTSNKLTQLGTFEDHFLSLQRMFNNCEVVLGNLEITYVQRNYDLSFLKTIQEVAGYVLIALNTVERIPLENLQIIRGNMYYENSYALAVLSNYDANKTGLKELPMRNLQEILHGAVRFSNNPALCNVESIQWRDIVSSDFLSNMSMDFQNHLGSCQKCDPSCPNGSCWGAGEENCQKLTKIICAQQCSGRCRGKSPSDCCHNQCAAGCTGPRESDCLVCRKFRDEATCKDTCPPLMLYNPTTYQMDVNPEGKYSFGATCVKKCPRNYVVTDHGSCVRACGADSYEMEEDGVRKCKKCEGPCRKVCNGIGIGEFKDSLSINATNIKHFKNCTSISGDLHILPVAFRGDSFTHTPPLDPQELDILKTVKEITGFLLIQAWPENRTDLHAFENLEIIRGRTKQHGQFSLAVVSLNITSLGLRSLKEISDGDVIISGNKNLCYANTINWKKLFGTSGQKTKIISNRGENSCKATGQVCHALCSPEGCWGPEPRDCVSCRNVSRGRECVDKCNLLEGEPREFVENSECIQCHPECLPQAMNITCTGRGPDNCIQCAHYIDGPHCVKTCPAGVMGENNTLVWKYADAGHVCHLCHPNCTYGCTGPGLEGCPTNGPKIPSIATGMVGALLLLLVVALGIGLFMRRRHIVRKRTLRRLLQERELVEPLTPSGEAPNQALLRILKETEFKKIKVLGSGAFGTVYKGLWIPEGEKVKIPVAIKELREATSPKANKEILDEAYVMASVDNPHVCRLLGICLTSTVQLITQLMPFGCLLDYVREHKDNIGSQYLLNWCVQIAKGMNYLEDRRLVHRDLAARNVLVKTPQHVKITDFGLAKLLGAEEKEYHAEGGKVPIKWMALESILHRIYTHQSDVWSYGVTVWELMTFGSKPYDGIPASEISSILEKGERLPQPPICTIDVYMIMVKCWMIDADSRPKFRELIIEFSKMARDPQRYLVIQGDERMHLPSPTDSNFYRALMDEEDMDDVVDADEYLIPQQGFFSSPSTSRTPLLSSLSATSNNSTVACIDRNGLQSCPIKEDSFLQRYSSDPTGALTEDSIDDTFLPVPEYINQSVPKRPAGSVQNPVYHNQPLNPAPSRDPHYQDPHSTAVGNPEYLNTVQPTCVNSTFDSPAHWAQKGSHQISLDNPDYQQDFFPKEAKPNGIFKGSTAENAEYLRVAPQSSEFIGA
How it was run: as §1

EGFR del19/C797S = EGFR del19/C797S (Homo sapiens, UniProt P00533, C797S/DEL746-750); assay: Biochemical EGFR kinase assay (Lance Ultra TR-FRET), double mutant del19/C797S
How it was run: as §1

[1] = IC50 del19/T790M/C797S (nM) 100 μM ATP, 100 μM ATP
[2] = Km ATP, read-out: IC50 del19/T790M/C797S (nM) Km ATP
[3] = IC50 L858R/T790M/C797S (nM) 100 μM ATP, 100 μM ATP
[4] = Km ATP, read-out: IC50 L858R/T790M/C797S (nM) Km ATP
[5] = IC50 L858R/C797S (nM) 100 μM ATP, 100 μM ATP
[6] = Km ATP, read-out: IC50 L858R/C797S (nM) Km ATP
[7] = IC50 WT (nM) 100 μM ATP, 100 μM ATP
[8] = IC50 del19/C797S (nM) 100 μM ATP, 100 μM ATP
[9] = Km ATP, read-out: IC50 del19/C797S (nM) Km ATP
[10] = Km ATP, read-out: IC50 WT (nM) Km ATP
[11] = Km ATP, read-out: IC50 del19/T790M/C797S, Km ATP
[12] = Km ATP, read-out: IC50 L858R/T790M/C797S, Km ATP
[13] = Km ATP, read-out: IC50 L858R/C797S, Km ATP
[14] = Km ATP, read-out: IC50 WT, Km ATP
[15] = Km ATP, read-out: IC50 del19/C797S, Km ATP

Sequence of EGFR del19/T790M/C797S (P00533 with tags, fused parts or gaps DEL746-750/T790M/C797S): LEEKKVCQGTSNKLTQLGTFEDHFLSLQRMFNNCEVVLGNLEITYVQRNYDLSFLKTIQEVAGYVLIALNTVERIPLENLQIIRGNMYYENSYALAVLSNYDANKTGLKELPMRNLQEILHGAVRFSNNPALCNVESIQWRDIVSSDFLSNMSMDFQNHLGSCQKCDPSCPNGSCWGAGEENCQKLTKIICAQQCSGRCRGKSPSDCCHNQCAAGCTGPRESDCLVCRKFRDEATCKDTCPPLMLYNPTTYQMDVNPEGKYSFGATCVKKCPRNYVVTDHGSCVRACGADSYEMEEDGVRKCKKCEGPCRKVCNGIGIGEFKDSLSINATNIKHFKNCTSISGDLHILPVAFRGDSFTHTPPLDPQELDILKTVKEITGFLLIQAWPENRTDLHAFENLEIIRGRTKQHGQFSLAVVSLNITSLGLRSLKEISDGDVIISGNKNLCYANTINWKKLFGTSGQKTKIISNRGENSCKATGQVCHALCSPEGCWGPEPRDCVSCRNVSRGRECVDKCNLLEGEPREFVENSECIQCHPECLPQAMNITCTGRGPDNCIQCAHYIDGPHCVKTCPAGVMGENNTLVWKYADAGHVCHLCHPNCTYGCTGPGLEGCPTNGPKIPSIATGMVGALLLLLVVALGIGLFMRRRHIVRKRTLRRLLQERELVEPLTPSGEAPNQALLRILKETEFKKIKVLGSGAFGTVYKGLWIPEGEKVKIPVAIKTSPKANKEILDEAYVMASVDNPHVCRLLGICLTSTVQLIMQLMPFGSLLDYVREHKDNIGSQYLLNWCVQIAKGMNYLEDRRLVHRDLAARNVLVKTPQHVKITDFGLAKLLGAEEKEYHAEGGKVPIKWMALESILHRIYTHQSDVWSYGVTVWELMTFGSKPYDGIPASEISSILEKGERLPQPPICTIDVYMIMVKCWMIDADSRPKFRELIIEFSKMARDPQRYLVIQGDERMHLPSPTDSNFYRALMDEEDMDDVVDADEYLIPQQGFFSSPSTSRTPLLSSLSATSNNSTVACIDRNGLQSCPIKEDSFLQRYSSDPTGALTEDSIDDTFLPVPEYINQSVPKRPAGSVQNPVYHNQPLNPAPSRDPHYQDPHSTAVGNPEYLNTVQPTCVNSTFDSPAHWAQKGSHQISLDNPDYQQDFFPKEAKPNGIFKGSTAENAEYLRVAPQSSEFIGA

## CN(C)C(=O)[C@H]1CC[C@@H](Nc2cc(Nc3ccnc(-c4cnn(S(=O)(=O)C5CC5)c4)n3)ncc2-c2ccn(C(F)F)n2)CC1 [Example 201, (1s,4s)-4-((2-((2-(1-(Cyclopropylsulfonyl)-1H-pyrazol-4-yl)pyrimidin-4-yl)amino)-5-(1-(difluoromethyl)-1H-pyrazol-3-yl)pyridin-4-yl)amino)-N,N-dimethylcyclohexane-1-carboxamide]
EGFR del19/T790M/C797S; [1]
  IC50: 0.5 nM
EGFR del19/T790M/C797S; [2]
  IC50: 0.8 nM
EGFR L858R/T790M/C797S; [3]
  IC50: 0.5 nM
EGFR L858R/T790M/C797S; [4]
  IC50: 0.3 nM
EGFR L858R/C797S; [5]
  IC50: 2.9 nM
EGFR L858R/C797S; [6]
  IC50: 0.7 nM
EGFR wildtype (WT); [7]
  IC50: > 10000 nM
EGFR del19/C797S; [8]
  IC50: 2.1 nM
EGFR del19/C797S; [9]
  IC50: 1.1 nM

## CN(C)C[C@H]1C[C@H](CNc2cc(Nc3ccnc(-c4cnn(S(=O)(=O)C5CC5)c4)n3)ncc2-c2ccn(C(F)F)n2)C1 [Example 209, N^2-(2-(1-(Cyclopropylsulfonyl)-1H-pyrazol-4-yl)pyrimidin-4-yl)-5-(1-(difluoromethyl)-1H-pyrazol-3-yl)-N^4-(((1r,3r)-3-((dimethylamino)methyl)cyclobutyl)methyl)pyridine-2,4-diamine]
EGFR del19/T790M/C797S; [2]
  IC50: 0.3 nM
EGFR L858R/T790M/C797S; [4]
  IC50: 0.1 nM
EGFR L858R/C797S; [6]
  IC50: 4.8 nM
EGFR wildtype (WT); [10]
  IC50: 13.1 nM
EGFR del19/C797S; [9]
  IC50: 6.4 nM

## C[C@]1(O)CC[C@@H](Nc2cc(Nc3ccnc(N4CCC[C@H](O)C4)n3)ncc2-c2ccn(C(F)F)n2)CC1 [Example 351, (S)-1-(4-((5-(1-(Difluoromethyl)-1H-pyrazol-3-yl)-4-(((1s,4R)-4-hydroxy-4-methylcyclohexyl)amino)pyridin-2-yl)amino)pyrimidin-2-yl)piperidin-3-ol]
EGFR del19/T790M/C797S; [11]
  IC50: 2.7 nM
EGFR L858R/T790M/C797S; [12]
  IC50: 2.8 nM
EGFR L858R/C797S; [13]
  IC50: 44.3 nM
EGFR wildtype (WT); [14]
  IC50: 235 nM
EGFR del19/C797S; [15]
  IC50: 198 nM

## O=S(=O)(C1CC1)n1cc(-c2nccc(Nc3cc(NC[C@H]4C[C@H](O)C4)c(-c4ccn(C(F)F)n4)cn3)n2)cn1 [Example 34, (1r,3r)-3-(((2-((2-(1-(Cyclopropylsulfonyl)-1H-pyrazol-4-yl)pyrimidin-4-yl)amino)-5-(1-(difluoromethyl)-1H-pyrazol-3-yl)pyridin-4-yl)amino)methyl)cyclobutan-1-ol]
EGFR del19/T790M/C797S; [1]
  IC50: 0.9 nM
EGFR del19/T790M/C797S; [2]
  IC50: 0.4 nM
EGFR L858R/T790M/C797S; [3]
  IC50: 1.6 nM
EGFR L858R/T790M/C797S; [4]
  IC50: 0.2 nM
EGFR L858R/C797S; [5]
  IC50: 53.3 nM
EGFR L858R/C797S; [6]
  IC50: 2 nM
EGFR wildtype (WT); [7]
  IC50: > 10000 nM
EGFR wildtype (WT); [10]
  IC50: 19.4 nM
EGFR del19/C797S; [8]
  IC50: 4.2 nM
EGFR del19/C797S; [9]
  IC50: 1.9 nM

## Cc1nn(CC(F)(F)F)cc1-c1nccc(Nc2cc(N[C@H]3CC[C@@H](CCO)CC3)c(-c3ccn(CC(F)F)n3)cn2)n1 [Example 337, 2-((1s,4s)-4-((5-(1-(2,2-Difluoroethyl)-1H-pyrazol-3-yl)-2-((2-(3-methyl-1-(2,2,2-trifluoroethyl)-1H-pyrazol-4-yl)pyrimidin-4-yl)amino)pyridin-4-yl)amino)cyclohexyl)ethan-1-ol]
EGFR del19/T790M/C797S; [11]
  IC50: 0.8 nM
EGFR L858R/T790M/C797S; [12]
  IC50: 0.5 nM
EGFR L858R/C797S; [13]
  IC50: 3.7 nM
EGFR wildtype (WT); [14]
  IC50: 9 nM
EGFR del19/C797S; [15]
  IC50: 6.1 nM

## CNC(=O)[C@H]1CC[C@@H](Nc2cc(Nc3ccnc(-c4cnn(S(=O)(=O)C5CC5)c4)n3)ncc2-c2ccn(C(F)F)n2)CC1 [Example 24, (1s,4s)-4-((2-((2-(1-(Cyclopropylsulfonyl)-1H-pyrazol-4-yl)pyrimidin-4-yl)amino)-5-(1-(difluoromethyl)-1H-pyrazol-3-yl)pyridin-4-yl)amino)-N-methylcyclohexane-1-carboxamide]
EGFR del19/T790M/C797S; [1]
  IC50: 0.5 nM
EGFR del19/T790M/C797S; [2]
  IC50: 0.3 nM
EGFR L858R/T790M/C797S; [3]
  IC50: 0.3 nM
EGFR L858R/T790M/C797S; [4]
  IC50: 0.2 nM
EGFR L858R/C797S; [5]
  IC50: 14.3 nM
EGFR L858R/C797S; [6]
  IC50: 2 nM
EGFR wildtype (WT); [7]
  IC50: > 10000 nM
EGFR wildtype (WT); [10]
  IC50: 6.9 nM
EGFR del19/C797S; [8]
  IC50: 0.8 nM
EGFR del19/C797S; [9]
  IC50: 0.7 nM

## CN(C)C(=O)C[C@H]1CC[C@@H](Nc2cc(Nc3ccnc(-c4cnn(S(=O)(=O)C5CC5)c4)n3)ncc2-c2ccn(C)n2)CC1 [Example 236, 2-((1s,4s)-4-((2-((2-(1-(Cyclopropylsulfonyl)-1H-pyrazol-4-yl)pyrimidin-4-yl)amino)-5-(1-methyl-1H-pyrazol-3-yl)pyridin-4-yl)amino)cyclohexyl)-N,N-dimethylacetamide]
EGFR del19/T790M/C797S; [1]
  IC50: 0.3 nM
EGFR del19/T790M/C797S; [2]
  IC50: 0.3 nM
EGFR L858R/T790M/C797S; [3]
  IC50: 0.3 nM
EGFR L858R/T790M/C797S; [4]
  IC50: 0.2 nM
EGFR L858R/C797S; [5]
  IC50: 2 nM
EGFR L858R/C797S; [6]
  IC50: 0.1 nM
EGFR wildtype (WT); [7]
  IC50: 565 nM
EGFR wildtype (WT); [10]
  IC50: 0.5 nM
EGFR del19/C797S; [8]
  IC50: 0.3 nM
EGFR del19/C797S; [9]
  IC50: 0.2 nM
